Measured values: BindingDB's records for doi:10.1124/mol.59.3.420 (The R. W. Johnson Pharmaceutical Research Institute, 2001)

How the values were obtained:
Histamine H4 receptor = Histamine H4 receptor (Homo sapiens, UniProt Q9H3N8)
Histamine H3 receptor = Histamine H3 receptor (Homo sapiens, UniProt Q9Y5N1)
Chain of Histamine H3 receptor (Q9Y5N1 whole entry): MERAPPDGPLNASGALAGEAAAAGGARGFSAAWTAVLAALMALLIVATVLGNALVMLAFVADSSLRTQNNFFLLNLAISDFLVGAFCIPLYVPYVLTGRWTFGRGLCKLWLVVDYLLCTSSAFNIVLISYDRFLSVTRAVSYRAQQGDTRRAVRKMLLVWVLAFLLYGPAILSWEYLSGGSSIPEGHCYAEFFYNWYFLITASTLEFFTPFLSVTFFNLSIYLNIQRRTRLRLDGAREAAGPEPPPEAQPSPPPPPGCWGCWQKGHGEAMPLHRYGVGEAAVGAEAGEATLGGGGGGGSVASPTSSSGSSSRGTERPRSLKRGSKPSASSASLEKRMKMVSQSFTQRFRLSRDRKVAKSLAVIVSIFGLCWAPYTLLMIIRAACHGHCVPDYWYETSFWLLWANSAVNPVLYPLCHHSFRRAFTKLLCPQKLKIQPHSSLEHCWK

Chain of Histamine H4 receptor (Q9H3N8 whole entry): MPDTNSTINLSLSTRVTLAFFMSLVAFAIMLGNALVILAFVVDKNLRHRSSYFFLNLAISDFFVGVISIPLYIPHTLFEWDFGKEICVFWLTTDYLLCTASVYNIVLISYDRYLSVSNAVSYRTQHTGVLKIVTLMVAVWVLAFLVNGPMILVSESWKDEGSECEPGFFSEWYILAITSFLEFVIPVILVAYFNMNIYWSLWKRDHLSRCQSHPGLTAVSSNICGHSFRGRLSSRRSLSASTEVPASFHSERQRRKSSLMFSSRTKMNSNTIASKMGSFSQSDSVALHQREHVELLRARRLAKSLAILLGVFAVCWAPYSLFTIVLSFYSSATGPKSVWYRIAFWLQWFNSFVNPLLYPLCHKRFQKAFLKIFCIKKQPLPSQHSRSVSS

| Compound | Ki (Histamine H4 receptor) | Ki (Histamine H3 receptor) |
| --- | --- | --- |
| CN/C(=N/CCSCc1nc[nH]c1C)NC#N | > 10000 nM |  |
| CN/C([CH-][N+](=O)[O-])=[NH+]\CCSCc1ccc(CN(C)C)o1 | > 10000 nM | > 10000 nM |
| C[C@@H](N)Cc1c[nH]cn1 | 146 nM |  |
| CNC(=S)NCCCCc1cnc[nH]1 [1-[4-(1H-imidazol-5-yl)butyl]-3-methylthiourea] |  | 84 nM |
| N=C(N)SCCc1cnc[nH]1 [2-(3H-imidazol-4-yl)ethylsulfanylmethanimidamide] | 2.7 nM | 0.3 nM |
| Cc1[nH]cnc1CSCCNC(=N)NCCCc1c[nH]cn1 [2-[3-(1H-imidazol-5-yl)propyl]-1-(2-{[(5-methyl-1H-imidazol-4-yl)methyl]sulfanyl}ethyl)guanidine] | 12.3 nM | 67 nM |
| c1nc(CC2CCNCC2)c[nH]1 [4-(1H-imidazol-4-ylmethyl)piperidine] | 9 nM |  |
| CN1CCC(=C2c3ccccc3C=Cc3ccccc32)CC1 [5-(1-methylpiperidylidene-4)-5H-dibenzo(a,d)cyclopheptene] | > 10000 nM |  |
| CNCCc1c[nH]cn1 [N(alpha)-Methylhistamine] | 23 nM | 0.5 nM |
| N#Cc1ccc(OCCCN2CCCCC2)cc1 [UCL-2138] | > 10000 nM |  |
| NC(=NCc1ccc(Cl)cc1)SCCCc1cnc[nH]1 [VUF 9153] | 12.8 nM |  |
| CN(C)CCCSC(=N)N [[3-(carbamimidoylsulfanyl)propyl]dimethylamine] |  | 825 nM |
